# Reference: patent US20240336638A1, “IMIDAZOLE COMPOUND, AND INTERMEDIATE AND APPLICATION THEREOF” (priority 2021, published 2024)
# Where two headings read alike, the source gives them in different places.
# Legend:
# [1] = Pharmacokinetics in SD rats after single IV and PO administration, plasma; assay type: in vivo; conditions: for Vd / AUC(0-inf) / AUC(0-t) / C0 / Cmax / Tmax / half-life / MRT last / MRT inf / bioavailability: Sprague-Dawley (SD), rat plasma; for Vd: rat, plasma, iv, 1 mg/kg; for MRT last: read-out: MRT(0−t); for MRT inf: read-out: MRT(0−∞); for bioavailability: PO 6 mg/kg vs IV 1 mg/kg
# Experimental: The experimental method of administration by gavage injection in rats: SD rats weighing 180 to 220 g were fasted for 12 hours prior to the experiment, with free access to water. After administration, food and water were withheld for 4 hours. After this 4-hour period, the rats were allowed free access to water, and food was provided after 8 hours. The drugs were administered at a set dose. N=3, blood samples were taken before administration, and 5 minutes, 0.25 hours, 0.5 hours, 0.75 hours, 1 hour, 2 hours, 4 hours, 8 hours, and 24 hours after administration, respectively, and placed into sodium heparin anticoagulant tubes. The tubes were centrifuged for 1 hour at 4° C. and at 8000 rpm for 5 minutes, and the plasma was then separated and stored in centrifuge tubes at −70° C. for analysis. The experimental method of intravenous administration to rats: SD rats weighing 180 to 220 g were fasted for 12 hours prior to the experiment, with free access to water. After administration, food and water were withheld for 4 hours. After this 4-hour period, the rats were allowed free access to water, and food was provided after 8 hours. The drugs were administered at a set dose. N=3, blood samples were taken before administration, and 5 minutes, 0.25 hours, 0.5 hours, 0.75 hours, 1 hour, 2 hours, 4 hours, 8 hours, and 24 hours after administration, respectively, and placed into sodium heparin anticoagulant tubes. The tubes were centrifuged for 1 hour at 4° C. and at 8000 rpm for 5 minutes, and the plasma was then separated and stored in centrifuge tubes at −70° C. for analysis. The plasma concentration-time data were processed using the Phoenix® WinNonlin® 8.0 program to calculate pharmacokinetic parameters. Among them, Cmax and Tmax are measured values, the elimination rate constant k of the tail section of the C-t curve is obtained from the linear regression of LnC-t, and the value of AUC0-4 is calculated by the trapezoidal area method, and the area under the curve from 0 to ∞ time is AUC=AUC0-4+Ct/k. [table]
# MCAO/R rats = assay: Therapeutic administration (i.v.) in middle cerebral artery occlusion/reperfusion (MCAO/R) rats; assay type: in vivo, rat; conditions: for Bleeding time / Brain water content (%) / Cerebral infarction rate (%) / Clotting time / Neurological function score: once a day for 3 days, mean ± SD, n = 8; for Neurological function score: modified Bederson score; for cerebral edema in rats: low and medium doses
# Experimental: Male SD rats weighing 250 to 300 g were taken, and the rats in each group fasted for 12 hours before modeling, while water was not restricted. According to the method of Longa et al.^[1], a rat model of MCAO/R was established by occluding the blood flow of internal carotid artery using the thread embolization method. The rats were anesthetized with 3% chloral hydrate (300 mg/kg, 1 mL/100 g body weight) through intraperitoneal injection and fixed in the supine position on the operating table. A midline incision was made in the neck, and the right common carotid artery was isolated using forceps and threaded for later use. The external and internal carotid arteries were isolated from the bifurcation of the common carotid artery. A single thread was threaded through the internal carotid artery, and two threads were threaded through the external carotid artery. Both distal and proximal ends were ligated, and the middle part of the ligation site was cut using ophthalmic scissors. The proximal main trunk of the external carotid artery was isolated and reserved for later use. The prepared cotton thread was used to half-ligate the common carotid artery (tying a slipknot), and the thread prepared for the internal carotid artery was tightened with hemostatic forceps, temporarily occluding the blood flow of the internal carotid artery. A small incision at the proximal main trunk of the external carotid artery was made using ophthalmic scissors, and then, the fishing line was held with straight forceps, inserted from this incision, and slowly advanced through the isolated proximal main trunk of the external carotid artery towards the intracranial direction of the internal carotid artery. The advancement was stopped at a predetermined position, and then the thread of the internal carotid artery that was tightened with the hemostatic forceps was loosened. […] Another thread was threaded and tightened around the proximal main trunk of the external carotid artery and the fishing line that had already been inserted into the predetermined position. The half-ligated thread on the common carotid artery was then loosened, and the skin was subsequently sutured. After 2 hours of ischemia, a small section of the fishing line was pulled out. […] After rats in the blank control group were anesthetized, only the bifurcation of the internal and external carotid arteries was exposed without the occlusion of the MCA.
# Successfully modeled rats (neurological function score of 3 after reperfusion) were taken and divided into 20 groups (8 rats for each) according to the random number table method. The groups were divided into a model control group, three dose groups (high, 12 mg/kg, 2.4 mg/mL; medium, 6 mg/kg, 1.2 mg/mL; low, 3 mg/kg, 0.6 mg/mL) for each of the six test compounds, and a positive drug Ozagrel group (6 mg/kg, 1.2 mg/mL), respectively. Both blank and model control groups were administered equal volumes of mixed solvents, and the rats in each group were administered by tail vein injection (i.v.) 2 hours after reperfusion, once a day for 3 consecutive days, with a volume of 0.5 mL/100 g body weight.
# Ten minutes after the last administration, the neurological function of the animals was graded according to the modified Bederson scoring method. The standard is as follows[2]: • 0 point: no neurological symptoms; • 1 point: when the rat is suspended by lifting its tail, the forelimb on the surgical side of the rat was flexed and pressed against the chest wall; • 2 points: on a smooth plane, when the rat is pushed from the surgical side to the opposite side, the resistance is less than when it is moved to the same side; • 3 points: the animal moves around or in circles when moving freely; • 4 points: flaccid paralysis, no spontaneous movement of limbs.
# After Bederson scoring, the rats were executed by cervical dislocation, and the whole brain was removed and weighed. After weighing, the whole brain was placed in a −20° C. refrigerator for 20 minutes. […]
# [2] = medium dose 6 mg/kg i.v. (Ozagrel group 6 mg/kg)
SMILES,"Vd ([1]; IV 1 mg/kg, read-out: Vss) [L/kg]","Vd ([1]; IV 1 mg/kg, read-out: Vz) [L/kg]",AUC(0-inf) ([1]; IV 1 mg/kg) [ng·h/mL],AUC(0-t) ([1]; IV 1 mg/kg) [ng·h/mL],C0 ([1]; IV 1 mg/kg) [ng/mL],Cmax ([1]; IV 1 mg/kg) [ng/mL],Tmax ([1]; IV 1 mg/kg) [h],half-life ([1]; IV 1 mg/kg) [h],MRT last ([1]; IV 1 mg/kg) [h],MRT inf ([1]; IV 1 mg/kg) [h],AUC(0-inf) ([1]; PO 6 mg/kg) [ng·h/mL],AUC(0-t) ([1]; PO 6 mg/kg) [ng·h/mL],Cmax ([1]; PO 6 mg/kg) [ng/mL],Tmax ([1]; PO 6 mg/kg) [h],half-life ([1]; PO 6 mg/kg) [h],bioavailability [1] [%],MRT last ([1]; PO 6 mg/kg) [h],MRT inf ([1]; PO 6 mg/kg) [h],Bleeding time (MCAO/R rats; high dose 12 mg/kg i.v.) [s],Brain water content (%) (MCAO/R rats; high dose 12 mg/kg i.v.),also measured
"O=C(O)[C@@H]1C[C@H]1c1ccc(Cn2cnc(F)c2)cc1F [Compound 17, (1R,2R)-2-(2-Fluoro-4-((4-fluoro-1H-imidazol-1-yl)methyl)phenyl)cyclopropane-1-carboxylic acid]",0.22,0.27,17600,17500,7320,6840,0.083,3.24,3.8,3.91,179000,178000,27200,2,2.96,169,4.16,4.25,338.38,80.34 ± 1.65,T1/2 and AUC(0-∞) in the whole body blood circulation system as compared to that of Ozagrel ([1]; intravenously at 1 mg/kg): significantly increased; T1/2 and AUC(0-∞) in the whole body blood circulation system as compared to that of Ozagrel ([1]; orally at 6 mg/kg): significantly increased; Cerebral infarction rate (%) (MCAO/R rats; high dose 12 mg/kg i.v.): 17.37%; Clotting time (MCAO/R rats; high dose 12 mg/kg i.v.): 163.00 ± 29.03 s; Neurological function score (MCAO/R rats; high dose 12 mg/kg i.v.): 1.63 ± 0.74; cerebral edema in rats (MCAO/R rats): did not significantly improve; Bleeding time (MCAO/R rats; low dose 3 mg/kg i.v.): 290.75 ± 79.23 s; Brain water content (%) (MCAO/R rats; low dose 3 mg/kg i.v.): 82.47 ± 3.03 %; Cerebral infarction rate (%) (MCAO/R rats; low dose 3 mg/kg i.v.): 30.61 ± 5.72%; Clotting time (MCAO/R rats; low dose 3 mg/kg i.v.): 141.25 ± 28.04 s; Neurological function score (MCAO/R rats; low dose 3 mg/kg i.v.): 2.25 ± 0.71; Bleeding time (MCAO/R rats; [2]): 307.50 ± 64.66 s; Brain water content (%) (MCAO/R rats; [2]): 81.96 ± 2.16 %; Cerebral infarction rate (%) (MCAO/R rats; [2]): 22.75%; Clotting time (MCAO/R rats; [2]): 155.00 ± 29.81 s; Neurological function score (MCAO/R rats; [2]): 1.88 ± 0.83
"O=C(O)[C@@H]1C[C@H]1c1ccc(Cn2ccnc2)cc1 [Compound 19, (1R,2R)-2-(4-((1H-Imidazol-1-yl)methyl)phenyl)cyclopropane-1-carboxylic acid]",0.16,0.2,3250,3250,6870,5490,0.083,0.44,0.5,0.51,36600,36600,27300,0.25,0.72,188,1.19,1.2,304.75 ± 35.16,80.84 ± 1.04,"Cerebral infarction rate (%) (MCAO/R rats; high dose 12 mg/kg i.v.): 13.48%; Clotting time (MCAO/R rats; high dose 12 mg/kg i.v.): 151.19 ± 21.35 s; Neurological function score (MCAO/R rats; high dose 12 mg/kg i.v.): 1.75 ± 0.89; reducing the infarct area (smallest mean infarct rate) (MCAO/R rats; high doses, comparison among test drugs): more advantageous; cerebral edema in rats (MCAO/R rats): did not significantly improve; Bleeding time (MCAO/R rats; low dose 3 mg/kg i.v.): 272.38 ± 52.89 s; Brain water content (%) (MCAO/R rats; low dose 3 mg/kg i.v.): 82.40 ± 1.50 %; Cerebral infarction rate (%) (MCAO/R rats; low dose 3 mg/kg i.v.): 28.23 ± 2.76%; Clotting time (MCAO/R rats; low dose 3 mg/kg i.v.): 136.25 ± 36.28 s; Neurological function score (MCAO/R rats; low dose 3 mg/kg i.v.): 2.00 ± 0.53; Bleeding time (MCAO/R rats; [2]): 274.13 ± 47.46 s; Brain water content (%) (MCAO/R rats; [2]): 81.92 ± 1.66 %; Cerebral infarction rate (%) (MCAO/R rats; [2]): 22.38%; Clotting time (MCAO/R rats; [2]): 148.63 ± 28.41 s; Neurological function score (MCAO/R rats; [2]): 2.00 ± 0.76"
